Holding throughout (assay type): cell-based
One test deals with S. aureus ATCC#6538. As to the kind of experiment: Synergy test: microtiter plate high resolution MIC assay, M9GY medium, 30° C. The following applies: for MIC of the microbicide acting alone (Ca or Cb; QA/QB): S. aureus, single component; for Cb: ppm AI of MBIT alone (MIC end-point, QB): Table 6. The text has this: (§1) One measure of synergism is the industrially accepted method described by Kull, F. C.; Eisman, P. C.; Sylwestrowicz, H. D. and Mayer, R. L., in Applied Microbiology 9:538-541 (1961), using the ratio determined by the formula: Qa/QA+Qb/QB=Synergy Index(“SI”) wherein: • QA=concentration of compound A (first component) in ppm, acting alone, which produced an end point (MIC of Compound A). • Qa=concentration of compound A in ppm, in the mixture, which produced an end point. • QB=concentration of compound B (second component) in ppm, acting alone, which produced an end point (MIC of Compound B). • Qb=concentration of compound B in ppm, in the mixture, which produced an end point.
(§2) When the sum of Qa/QA and Qb/QB is greater than one, antagonism is indicated. […] The lower the SI, the greater the synergy shown by that particular mixture. The minimum inhibitory concentration (MIC) of a microbicide is the lowest concentration tested under a specific set of conditions that prevents the growth of added microorganisms.
(§3) Synergy tests were conducted using standard microtiter plate assays with media designed for optimal growth of the test microorganism. Minimal salt medium supplemented with 0.2% glucose and 0.1% yeast extract (M9GY medium) was used for testing bacteria; Potato Dextrose Broth (PDB medium) was used for testing yeast and mold. In this method, a wide range of combinations of microbicides was tested by conducting high resolution MIC assays in the presence of various concentrations of MBIT. High resolution MICs were determined by adding varying amounts of microbicide to one column of a microtitre plate and doing subsequent […] dilutions using an automated liquid handling system to obtain a series of endpoints ranging from 2 ppm to 10,000 ppm active ingredient.
(§4) The synergy of the combinations of the present invention was determined against several microorganisms, as described in the Tables below. The bacteria were used at a concentration of about 5×10^6 bacteria per mL and the yeast and mold at 5×10^5 fungi per mL. These microorganisms are representative of natural contaminants in many consumer and industrial applications. […] (yeast and mold) or 30° C. (bacteria).
(§5) In each test, Second Component (B) was MBIT and the First Component (A) was the other commercial microbicide.

A further test has as its system Ps. aeruginosa ATCC#9027. The test is described as above. The following applies: for MIC of the microbicide acting alone (Ca or Cb; QA/QB): Ps. aeruginosa, single component.
Source text: as §1, §2, §3, §4, §5

For a further test, the system named is C. albicans ATCC # 10231. As to the kind of experiment: Synergy test: microtiter plate high resolution MIC assay, PDB medium, 25° C. The following applies: for MIC of the microbicide acting alone (Ca or Cb; QA/QB): C. albicans, single component.
Source text: as §1, §2, §3, §4, §5

The test system of the next test is A. niger ATCC # 16404. The test is described as above. The following applies: for MIC of the microbicide acting alone (Ca or Cb; QA/QB): A. niger, single component.
Source text: as §1, §2, §3, §4, §5

The mark [1] stands for this setting: contact time 24 hrs, MBIT alone (QB) or in mixture with ACQ C2 (Qb).
The mark [2] stands for this setting: contact time 24 hrs, MBIT alone (QB) or in mixture with ACQ type D (Qb).
Where [3] appears, read: contact time 48 hrs, MBIT alone (QB) or in mixture with ACQ C2 (Qb).
Setting [4] is: contact time 48 hrs, MBIT alone (QB) or in mixture with ACQ type D (Qb).

Where “and” joins values, the source holds several entries; their conditions need not be identical. Equal values may be shown once.

Regarding `CCCCCCCCCCCC(=O)N[C@@H](CCCN=C(N)N)C(=O)OCC.Cl` [CYTO GUARD LA, ethyl lauroyl arginate hydrochloride], the “MIC of the microbicide acting alone (Ca or Cb; QA/QB)” value (shortened to “MIC of the microbicide acting alone”) with S. aureus ATCC#6538 (contact time 24 hrs) amounted to 2.125 ppm AI; in the test on S. aureus ATCC#6538 (contact time 48 hrs), 2.625 ppm AI; with Ps. aeruginosa ATCC#9027 (contact time 48 hrs), 42.5 ppm AI; with C. albicans ATCC # 10231 (contact time 48 hrs), 87.5 ppm AI; in the test on C. albicans ATCC # 10231 (contact time 72 hrs), 87.5 ppm AI; with A. niger ATCC # 16404 (contact time 3 days) it was 110 ppm AI. Also, the “MIC of the microbicide acting alone” value with A. niger ATCC # 16404 (contact time 7 days) was found to be 110 ppm AI.
On to `Cn1sc2ccccc2c1=O` [MBIT, N-methyl-1,2-benzisothiazolin-3-one], for which the “Cb: ppm AI of MBIT alone (MIC end-point, QB)” value (“Cb: ppm AI of MBIT alone” below) is 15 ppm in the test with S. aureus ATCC#6538 (S. aureus ATCC#6538, contact time 24 hrs); 15 ppm with S. aureus ATCC#6538 (S. aureus ATCC#6538, contact time 48 hrs); 125 ppm in the test with Ps. aeruginosa ATCC#9027 (Ps. aeruginosa ATCC#9027, contact time 24 hrs, alone, Table 6); 30 ppm in the test on C. albicans ATCC # 10231 (C. albicans ATCC # 10231, contact time 48 hrs, Table 6); 30 ppm in the test with C. albicans ATCC # 10231 (C. albicans ATCC # 10231, contact time 48 hrs, Table 7); 30 ppm in the test on C. albicans ATCC # 10231 (C. albicans ATCC # 10231, contact time 48 hrs, Table 8). Also, the “Cb: ppm AI of MBIT alone” value in the test on C. albicans ATCC # 10231 (C. albicans ATCC # 10231, contact time 72 hrs, Table 6) is given as 30 ppm; with C. albicans ATCC # 10231 (C. albicans ATCC # 10231, contact time 72 hrs, Table 7), 30 ppm; with C. albicans ATCC # 10231 (C. albicans ATCC # 10231, contact time 72 hrs, Table 8), 30 ppm; in the test with A. niger ATCC # 16404 (A. niger ATCC # 16404, contact time 3 days, Table 6), 37.5 ppm; in the test on A. niger ATCC # 16404 (A. niger ATCC # 16404, contact time 3 days, Table 7) it was 37.5 ppm; with A. niger ATCC # 16404 (A. niger ATCC # 16404, contact time 3 days, Table 8), 37.5 ppm. Besides, the “Cb: ppm AI of MBIT alone” value turned out to be 37.5 ppm in the test with A. niger ATCC # 16404 (A. niger ATCC # 16404, contact time 7 days, Table 6); 75 ppm in the test on A. niger ATCC # 16404 (A. niger ATCC # 16404, contact time 7 days, Table 7); 75 ppm in the test on A. niger ATCC # 16404 (A. niger ATCC # 16404, contact time 7 days, Table 8). The “MIC of the microbicide acting alone” value with S. aureus ATCC#6538 (contact time 24 hrs) is given as 15 ppm AI; in the test on S. aureus ATCC#6538 (contact time 48 hrs), 15 ppm AI; in the test with S. aureus ATCC#6538 (second block of Table 4, contact time not given), 15 ppm AI; in the test on Ps. aeruginosa ATCC#9027 (contact time 24 hrs) it was 125 ppm AI; in the test on Ps. aeruginosa ATCC#9027 (contact time 48 hrs) it was 125 ppm AI; in the test with C. albicans ATCC # 10231 (contact time 48 hrs), 30 ppm AI. Besides, the “MIC of the microbicide acting alone” value in the test with C. albicans ATCC # 10231 (contact time 72 hrs) is 30 ppm AI and 60 ppm AI; with A. niger ATCC # 16404 (contact time 3 days) it was 37.5 ppm AI; in the test on A. niger ATCC # 16404 (contact time 7 days), 37.5 ppm AI and 75 ppm AI. The “Cb: ppm AI of MBIT at MIC end point” value in the test with S. aureus ATCC#6538 (setting [1]) stood at 15 ppm; with S. aureus ATCC#6538 (setting [2]), 15 ppm; in the test on S. aureus ATCC#6538 (setting [3]), 15 ppm; in the test with S. aureus ATCC#6538 (setting [4]), 15 ppm; in the test on Ps. aeruginosa ATCC#9027 (setting [1]) it was 75 ppm; in the test with Ps. aeruginosa ATCC#9027 (setting [2]), 75 ppm. Besides, the “Cb: ppm AI of MBIT at MIC end point” value came to 125 ppm in the test with Ps. aeruginosa ATCC#9027 (setting [3]); 125 ppm in the test with Ps. aeruginosa ATCC#9027 (setting [4]); 60 ppm with C. albicans ATCC # 10231 (setting [3]); 30 ppm in the test on C. albicans ATCC # 10231 (setting [4]); 60 ppm in the test on C. albicans ATCC # 10231 (contact time 72 hrs, MBIT alone (QB) or in mixture with ACQ C2 (Qb)); 60 ppm in the test with C. albicans ATCC # 10231 (contact time 72 hrs, MBIT alone (QB) or in mixture with ACQ type D (Qb)). For the same molecule, the “Cb: ppm AI of MBIT at MIC end point” value in the test with A. niger ATCC # 16404 (contact time 3 days, MBIT alone (QB) or in mixture with ACQ C2 (Qb)) turned out to be 37.5 ppm; in the test on A. niger ATCC # 16404 (contact time 3 days, MBIT alone (QB) or in mixture with ACQ type D (Qb)) it was 37.5 ppm; with A. niger ATCC # 16404 (contact time 7 days, MBIT alone (QB) or in mixture with ACQ C2 (Qb)), 37.5 ppm; in the test on A. niger ATCC # 16404 (contact time 7 days, MBIT alone (QB) or in mixture with ACQ type D (Qb)) it was 75 ppm.
As for “cocamidopropyl-N-2-hydroxyethylcarbamoyl methyl dimethyl ammonium chloride [MONTALINE C40]”, the “MIC of the microbicide acting alone” value was found to be 5 ppm AI in the test with S. aureus ATCC#6538 (contact time 24 hrs); 5 ppm AI in the test on S. aureus ATCC#6538 (contact time 48 hrs); 300 ppm AI in the test on Ps. aeruginosa ATCC#9027 (contact time 24 hrs); 300 ppm AI in the test with Ps. aeruginosa ATCC#9027 (contact time 48 hrs); 525 ppm AI in the test with C. albicans ATCC # 10231 (contact time 48 hrs); 1100 ppm AI in the test on C. albicans ATCC # 10231 (contact time 72 hrs). Also, the “MIC of the microbicide acting alone” value with A. niger ATCC # 16404 (contact time 3 days) and with A. niger ATCC # 16404 (contact time 7 days) was 650 ppm AI throughout.

(Values after patent US8129419B2, “Microbicidal composition” (Rohm and Haas Company, priority 2007, dated 2012).)
